Columns and labels:
Assay type in all cases: biochemical
Conditions in all cases: procedures of Example 14 (TR-FRET)
JNK3 = JNK3 (Homo sapiens (Human), UniProt P53779); assay: JNK3 TR-FRET kinase assay (Example 14)
Procedure, shortened: (§1)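 Two TR-FRET formats were used for each JNK isoform. In the direct one, preactivated aJNK phosphorylated EPIW-1 at about 1 mM final ATP (RT, 15 min). Both were EDTA-quenched and read by HTRF.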

JNK1 = JNK1 (Homo sapiens (Human), UniProt P45983); assay: JNK1 TR-FRET kinase assay (Example 14)
Procedure, shortened: as §1

JNK2 = JNK2 (Homo sapiens (Human), UniProt P45984); assay: JNK2 TR-FRET kinase assay (Example 14)
Procedure, shortened: as §1

Chain of JNK1 (P45983 other isoform, or with tags, fused parts or gaps isoform P45983-2, species assumed): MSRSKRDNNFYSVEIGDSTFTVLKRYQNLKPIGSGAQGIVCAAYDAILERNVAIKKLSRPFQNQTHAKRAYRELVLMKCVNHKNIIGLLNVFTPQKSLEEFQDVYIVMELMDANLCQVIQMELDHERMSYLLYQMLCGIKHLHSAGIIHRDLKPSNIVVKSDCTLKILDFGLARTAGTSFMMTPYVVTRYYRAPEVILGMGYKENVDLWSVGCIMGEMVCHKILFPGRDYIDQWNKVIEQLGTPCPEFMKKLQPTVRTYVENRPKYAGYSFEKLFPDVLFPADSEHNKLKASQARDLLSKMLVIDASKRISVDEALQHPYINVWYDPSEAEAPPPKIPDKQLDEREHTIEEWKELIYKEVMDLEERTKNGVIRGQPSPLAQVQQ
Chain of JNK3 (P53779 whole entry, species assumed, canonical isoform): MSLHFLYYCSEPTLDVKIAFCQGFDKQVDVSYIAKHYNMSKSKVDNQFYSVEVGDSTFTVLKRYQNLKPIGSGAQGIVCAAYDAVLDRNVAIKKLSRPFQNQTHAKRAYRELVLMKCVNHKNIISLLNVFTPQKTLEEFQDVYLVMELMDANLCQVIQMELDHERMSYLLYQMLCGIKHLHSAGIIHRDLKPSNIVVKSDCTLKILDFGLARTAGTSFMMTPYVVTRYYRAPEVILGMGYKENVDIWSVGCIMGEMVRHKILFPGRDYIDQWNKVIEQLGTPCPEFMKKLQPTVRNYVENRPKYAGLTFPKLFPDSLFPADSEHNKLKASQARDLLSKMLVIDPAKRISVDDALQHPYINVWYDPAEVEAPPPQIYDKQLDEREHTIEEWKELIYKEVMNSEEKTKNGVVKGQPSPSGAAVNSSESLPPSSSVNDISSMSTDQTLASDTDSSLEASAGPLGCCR
Chain of JNK2 (P45984 whole entry, species assumed): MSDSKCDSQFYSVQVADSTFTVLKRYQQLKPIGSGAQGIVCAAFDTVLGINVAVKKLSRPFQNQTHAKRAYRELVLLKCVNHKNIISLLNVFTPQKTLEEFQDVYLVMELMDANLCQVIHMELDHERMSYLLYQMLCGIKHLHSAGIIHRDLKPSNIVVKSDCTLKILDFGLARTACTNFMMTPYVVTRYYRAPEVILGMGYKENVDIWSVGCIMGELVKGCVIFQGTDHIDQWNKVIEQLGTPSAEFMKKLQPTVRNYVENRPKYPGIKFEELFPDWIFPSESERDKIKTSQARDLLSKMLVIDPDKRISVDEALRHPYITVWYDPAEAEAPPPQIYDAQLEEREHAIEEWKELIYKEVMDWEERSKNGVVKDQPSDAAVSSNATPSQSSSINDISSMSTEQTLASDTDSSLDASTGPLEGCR

Row | SMILES | IC50 (JNK3) [nM] | IC50 (JNK1) [nM] | IC50 (JNK2) [nM]
1 | O=C(CN1C(=O)C(F)(F)c2ccccc21)Nc1scc(Br)c1-c1nnc[nH]1 [N-(4-bromo-3-(4H-1,2,4-triazol-3-yl)thiophen-2-yl)-2-(3,3-difluoro-2-oxoindolin-1-yl)acetamide] | 100 to 10000 | < 100 | 100 to 10000
2 | O=C(Cc1cc(C(F)(F)F)c2cccnc2c1)Nc1scc(Br)c1-c1nnc[nH]1 [N-(4-bromo-3-(4H-1,2,4-triazol-3-yl)thiophen-2-yl)-2-(5-(trifluoromethyl)quinolin-7-yl)acetamide] | 100 to 10000 | 100 to 10000 | 100 to 10000
3 | O=C(Cc1cc(C(F)(F)F)cc2ncccc12)Nc1scc(Br)c1-c1nnc[nH]1 [N-(4-bromo-3-(4H-1,2,4-triazol-3-yl)thiophen-2-yl)-2-(7-(trifluoromethyl)quinolin-5-yl)acetamide] | 100 to 10000 | 100 to 10000 | 100 to 10000
4 | O=C(Cc1cncc2ccccc12)Nc1scc(Br)c1-c1nnc[nH]1 [N-(4-bromo-3-(4H-1,2,4-triazol-3-yl)thiophen-2-yl)-2-(isoquinolin-4-yl)acetamide] | < 100 | < 100 | 100 to 10000
5 | O=C(Cc1ccnc2ccccc12)Nc1scc(Br)c1-c1nnc[nH]1 [N-(4-bromo-3-(4H-1,2,4-triazol-3-yl)thiophen-2-yl)-2-(quinolin-4-yl)acetamide] | < 100 | < 100 | 100 to 10000
6 | O=C(CN1C(=O)CCc2ncccc21)Nc1scc(Br)c1-c1ncco1 [N-(4-bromo-3-(oxazol-2-yl)thiophen-2-yl)-2-(2-oxo-3,4-dihydro-1,5-naphthyridin-1(2H)-yl)acetamide] | < 100 | < 100 | < 100
7 | O=C(CN1C(=O)CCc2ncccc21)Nc1scc(Br)c1-c1nccs1 [N-(4-bromo-3-(thiazol-2-yl)thiophen-2-yl)-2-(2-oxo-3,4-dihydro-1,5-naphthyridin-1(2H)-yl)acetamide] | < 100 | < 100 | 100 to 10000
8 | CN(C)CCn1cnc(-c2c(Cl)csc2NC(=O)Cn2c(=O)ccc3cc(C(F)(F)F)ccc32)n1 [N-(4-chloro-3-(1-(2-(dimethylamino)ethyl)-1H-1,2,4-triazol-3-yl)thiophen-2-yl)-2-(2-oxo-6-(trifluoromethyl)quinolin-1(2H)-yl)acetamide] | < 100 | < 100 | < 100
9 | CN1CCN(CCCn2cnc(-c3c(Cl)csc3NC(=O)Cn3c(=O)ccc4cc(C(F)(F)F)ccc43)n2)CC1 [N-(4-chloro-3-(1-(3-(4-methylpiperazin-1-yl)propyl)-1H-1,2,4-triazol-3-yl)thiophen-2-yl)-2-(2-oxo-6-(trifluoromethyl)quinolin-1(2H)-yl)acetamide] | < 100 | < 100 | 100 to 10000
10 | CN(C)CCCn1cnc(-c2c(Cl)csc2NC(=O)Cn2c(=O)ccc3cc(C(F)(F)F)ccc32)n1 [N-(4-chloro-3-(1-(3-(dimethylamino)propyl)-1H-1,2,4-triazol-3-yl)thiophen-2-yl)-2-(2-oxo-6-(trifluoromethyl)quinolin-1(2H)-yl)acetamide] | < 100 | < 100 | < 100
11 | O=C(Cn1c(=O)ccc2cc(C(F)(F)F)ccc21)Nc1scc(Cl)c1-c1ncn(CCCN2CCCC2)n1 [N-(4-chloro-3-(1-(3-(pyrrolidin-1-yl)propyl)-1H-1,2,4-triazol-3-yl)thiophen-2-yl)-2-(2-oxo-6-(trifluoromethyl)quinolin-1(2H)-yl)acetamide] | < 100 | < 100 | < 100
12 | O=C(Cn1c(=O)ccc2cc(C(F)(F)F)ccc21)Nc1scc(Cl)c1-c1ncn(CCCN2CCOCC2)n1 [N-(4-chloro-3-(1-(3-morpholinopropyl)-1H-1,2,4-triazol-3-yl)thiophen-2-yl)-2-(2-oxo-6-(trifluoromethyl)quinolin-1(2H)-yl)acetamide] | < 100 | < 100 | < 100
13 | Cn1cnc(-c2c(Cl)csc2NC(=O)CN2C(=O)CCc3ncccc32)n1 [N-(4-chloro-3-(1-methyl-1H-1,2,4-triazol-3-yl)thiophen-2-yl)-2-(2-oxo-3,4-dihydro-1,5-naphthyridin-1(2H)-yl)acetamide] | < 100 | < 100 | < 100

The remaining lines, values ahead:

Row | IC50 (JNK3) [nM] | IC50 (JNK1) [nM] | IC50 (JNK2) [nM] | SMILES
14 | < 100 | < 100 | < 100 | Cn1cnc(-c2c(Cl)csc2NC(=O)Cn2c(=O)ccc3nc(C(F)(F)F)ccc32)n1 [N-(4-chloro-3-(1-methyl-1H-1,2,4-triazol-3-yl)thiophen-2-yl)-2-(2-oxo-6-(trifluoromethyl)-1,5-naphthyridin-1(2H)-yl)acetamide]
15 | < 100 | < 100 | < 100 | Cn1cnc(-c2c(Cl)csc2NC(=O)Cn2c(=O)ccc3cnc(C(F)(F)F)cc32)n1 [N-(4-chloro-3-(1-methyl-1H-1,2,4-triazol-3-yl)thiophen-2-yl)-2-(2-oxo-7-(trifluoromethyl)-1,6-naphthyridin-1(2H)-yl)acetamide]
16 | < 100 | < 100 | < 100 | Cn1cnc(-c2c(Cl)csc2NC(=O)Cn2c(=O)ccn3nc(C(F)(F)F)cc23)n1 [N-(4-chloro-3-(1-methyl-1H-1,2,4-triazol-3-yl)thiophen-2-yl)-2-(5-oxo-2-(trifluoromethyl)pyrazolo[1,5-a]pyrimidin-4(5H)-yl)acetamide]
17 | < 100 | < 100 | < 100 | Cn1cnc(-c2c(Cl)csc2NC(=O)Cn2c(=O)ccn3nccc23)n1 [N-(4-chloro-3-(1-methyl-1H-1,2,4-triazol-3-yl)thiophen-2-yl)-2-(5-oxopyrazolo[1,5-a]pyrimidin-4(5H)-yl)acetamide]
18 | < 100 | < 100 | < 100 | O=C(CN1C(=O)CCc2ncccc21)Nc1scc(Cl)c1-c1nc[nH]n1 [N-(4-chloro-3-(1H-1,2,4-triazol-3-yl)thiophen-2-yl)-2-(2-oxo-3,4-dihydro-1,5-naphthyridin-1(2H)-yl)acetamide]
19 | < 100 | < 100 | < 100 | O=C(Cn1c(=O)ccc2cnc(C(F)(F)F)cc21)Nc1scc(Cl)c1-c1nc[nH]n1 [N-(4-chloro-3-(1H-1,2,4-triazol-3-yl)thiophen-2-yl)-2-(2-oxo-7-(trifluoromethyl)-1,6-naphthyridin-1(2H)-yl)acetamide]
20 | < 100 | < 100 | < 100 | N#Cc1ccc2c(ccc(=O)n2CC(=O)Nc2scc(Cl)c2-c2nc[nH]n2)c1 [N-(4-chloro-3-(1H-1,2,4-triazol-3-yl)thiophen-2-yl)-2-(6-cyano-2-oxoquinolin-1(2H)-yl)acetamide]
21 | < 100 | < 100 | < 100 | O=C(CN1C(=O)CCc2ccccc21)Nc1scc(Cl)c1-c1ncn[nH]1 [N-(4-chloro-3-(1H-1,2,4-triazol-5-yl)thiophen-2-yl)-2-(2-oxo-3,4-dihydroquinolin-1(2H)-yl)acetamide]
22 | < 100 | < 100 | < 100 | O=C(Cn1c(=O)ccc2nc(C(F)(F)F)ccc21)Nc1scc(Cl)c1-c1ncn[nH]1 [N-(4-chloro-3-(1H-1,2,4-triazol-5-yl)thiophen-2-yl)-2-(2-oxo-6-(trifluoromethyl)-1,5-naphthyridin-1(2H)-yl)acetamide]
23 | < 100 | < 100 | < 100 | O=C(Cn1c(=O)ccc2cc(C(F)(F)F)ccc21)Nc1scc(Cl)c1-c1ncn[nH]1 [N-(4-chloro-3-(1H-1,2,4-triazol-5-yl)thiophen-2-yl)-2-(2-oxo-6-(trifluoromethyl)quinolin-1(2H)-yl)acetamide]
24 | < 100 | < 100 | < 100 | O=C(Cn1c(=O)ccn2nc(C(F)(F)F)cc12)Nc1scc(Cl)c1-c1ncn[nH]1 [N-(4-chloro-3-(1H-1,2,4-triazol-5-yl)thiophen-2-yl)-2-(5-oxo-2-(trifluoromethyl)pyrazolo[1,5-a]pyrimidin-4(5H)-yl)acetamide]
25 | < 100 | < 100 | < 100 | O=C(Cn1c(=O)ccn2nccc12)Nc1scc(Cl)c1-c1ncn[nH]1 [N-(4-chloro-3-(1H-1,2,4-triazol-5-yl)thiophen-2-yl)-2-(5-oxopyrazolo[1,5-a]pyrimidin-4(5H)-yl)acetamide]
26 | 100 to 10000 | < 100 | 100 to 10000 | O=C(Cc1ccc(C(F)(F)F)c2ncccc12)Nc1scc(Cl)c1-c1ncn[nH]1 [N-(4-chloro-3-(1H-1,2,4-triazol-5-yl)thiophen-2-yl)-2-(8-(trifluoromethyl)quinolin-5-yl)acetamide]
27 | < 100 | < 100 | < 100 | O=C(Cc1cccc2ncccc12)Nc1scc(Cl)c1-c1ncn[nH]1 [N-(4-chloro-3-(1H-1,2,4-triazol-5-yl)thiophen-2-yl)-2-(quinolin-5-yl)acetamide]
28 | < 100 | < 100 | 100 to 10000 | CCc1n[nH]c(-c2c(Cl)csc2NC(=O)CN2C(=O)CCc3ncccc32)n1 [N-(4-chloro-3-(3-ethyl-1H-1,2,4-triazol-5-yl)thiophen-2-yl)-2-(2-oxo-3,4-dihydro-1,5-naphthyridin-1(2H)-yl)acetamide]
29 | 100 to 10000 | < 100 | 100 to 10000 | CC(C)c1n[nH]c(-c2c(Cl)csc2NC(=O)CN2C(=O)CCc3ncccc32)n1 [N-(4-chloro-3-(3-isopropyl-1H-1,2,4-triazol-5-yl)thiophen-2-yl)-2-(2-oxo-3,4-dihydro-1,5-naphthyridin-1(2H)-yl)acetamide]
30 | < 100 | < 100 | < 100 | Cc1n[nH]c(-c2c(Cl)csc2NC(=O)CN2C(=O)CCc3ncccc32)n1 [N-(4-chloro-3-(3-methyl-1H-1,2,4-triazol-5-yl)thiophen-2-yl)-2-(2-oxo-3,4-dihydro-1,5-naphthyridin-1(2H)-yl)acetamide]
